# Source: patent US20110319461A1, “NOVEL SALTS, POLYMORPHS, AND SYNTHETIC PROCESSES REGARDING IMIDAZOLE DERIVATIVE” (Ore Pharmaceuticals Inc., priority 2010, published 2011)
# Like-named read-outs stand apart in the source and are kept apart here.
# Legend:
# [1] = system: acute dextran sodium sulfate-induced colitis in mice; conditions: as reported by Byrnes et al., cited from earlier work
# Water solubility = assay type: physicochemical
# [2] = system: upper gastrointestinal tract of the mouse; assay: Anti-inflammatory effects in the upper gastrointestinal tract; assay type: in vivo
# ACE = ACE (Homo sapiens, UniProt P12821); conditions: per Dales et al.; read-out: IC50 against ACE (selectivity); cited from earlier work
# [3] = system: acute dextran sodium sulfate-induced colitis in mice; assay: Acute dextran sodium sulfate (DSS)-induced colitis; assay type: in vivo; conditions: for DSS-induced colon shortening: high dose Compound (I) and sulfasalazine
# Description: 2-[1-(S)-carboxy-2(S)-[3-(3,5-dichloro-benzyl)-3H-imidazol-4-yl]-ethylamino]-4-methyl-pentanoic acid, herein also referred to as Compound (I), is described in U.S. Pat. No. 6,632,830, U.S. Pat. No. 7,045,532, and WO 00/066104, each herein incorporated by reference in their entirety. Additionally, Compound (I) is discussed in “Substrate-Based Design of the First Class of Angiotensin-Converting Enzyme-Related Carboxypeptidase (ACE2) Inhibitors”, Dales, N. A., et al., J. Amer. Chem. Soc., 2002, 124, 11852-11853, incorporated by reference. As reported by Byrnes et al., Effects of the ACE2 inhibitor GL1001 on acute dextran sodium sulfate-induced colitis in mice, Inflamm. […] Doses of Compound (I) ameliorated DSS-induced disease activity, including rectal prolapsed and intestinal bleeding. […] Compound (I) provides therapeutic potential for inflammatory bowel disease.
# Exposure to DSS prior to vehicle treatment (vehicle+DSS group) produced a time-dependent decrease in body weight that recovered by day 15. This body weight loss and recovery was similar in animals having received repeated doses of Compound (I) (300 mg/kg).
# Disease activity index (DAI), namely rectal prolapsed, stool consistency, and fecal occult blood) was assessed every other day throughout the experiment. By experimental day 7, significant DSS-induced disease began to emerge, and trends toward recovery were observed by day 11. Statistical analyses were conducted on data obtained on the days of peak severity: day 7 (presence of fecal blood and diarrhea) and day 9 (rectal prolapse). All DAI data were analyzed by one-way ANOVA. Compared to non-DSS controls, DSS treatment markedly elevated scores for fecal occult blood, stoll consistency, and rectal prolapsed. These effects were attenuated by Compound (I) (300 mg/kg).
# On experimental day 15, colon was obtained from each animal and length was measured. […] No effects of 30 or 100 mg/kg on DSS-induced colon shrinkage were observed (P>0.05 for all). Total histopathology score (inflammation+glandular epithelial loss+mucosal erosion) for each treatment group is represented with a maximum obtainable score of 15. One-way ANOVA indicated significant DSS_induced damage (vs. non-DSS control) in each region studied, with the most damage occurring in the distal colon.
# ACE2 = ACE2 (Homo sapiens, UniProt Q9BYF1); conditions: cited from earlier work
# CPDA = molecular target: T1, CPDA (Bos taurus, UniProt P00730); conditions: per Dales et al.; read-out: IC50 against CPDA (selectivity); cited from earlier work
# T1 sequence (P00730 111-419): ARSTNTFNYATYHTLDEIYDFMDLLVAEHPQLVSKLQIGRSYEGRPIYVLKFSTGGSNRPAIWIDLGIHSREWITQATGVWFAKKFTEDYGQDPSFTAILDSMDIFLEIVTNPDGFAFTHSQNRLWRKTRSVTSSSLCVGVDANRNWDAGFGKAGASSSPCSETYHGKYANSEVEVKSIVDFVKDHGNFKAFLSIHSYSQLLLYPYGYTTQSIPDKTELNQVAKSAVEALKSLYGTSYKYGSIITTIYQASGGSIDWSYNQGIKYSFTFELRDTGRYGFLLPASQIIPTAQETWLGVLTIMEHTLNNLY
# [4] = system: NSAID-induced gastric damage in rats; assay: NSAID-induced gastric damage; assay type: in vivo
# [5] = Storage stability of the drug substance; assay type: physicochemical
# [6] = profound effect in the distal segment
# Chain of ACE2 (Q9BYF1 18-805): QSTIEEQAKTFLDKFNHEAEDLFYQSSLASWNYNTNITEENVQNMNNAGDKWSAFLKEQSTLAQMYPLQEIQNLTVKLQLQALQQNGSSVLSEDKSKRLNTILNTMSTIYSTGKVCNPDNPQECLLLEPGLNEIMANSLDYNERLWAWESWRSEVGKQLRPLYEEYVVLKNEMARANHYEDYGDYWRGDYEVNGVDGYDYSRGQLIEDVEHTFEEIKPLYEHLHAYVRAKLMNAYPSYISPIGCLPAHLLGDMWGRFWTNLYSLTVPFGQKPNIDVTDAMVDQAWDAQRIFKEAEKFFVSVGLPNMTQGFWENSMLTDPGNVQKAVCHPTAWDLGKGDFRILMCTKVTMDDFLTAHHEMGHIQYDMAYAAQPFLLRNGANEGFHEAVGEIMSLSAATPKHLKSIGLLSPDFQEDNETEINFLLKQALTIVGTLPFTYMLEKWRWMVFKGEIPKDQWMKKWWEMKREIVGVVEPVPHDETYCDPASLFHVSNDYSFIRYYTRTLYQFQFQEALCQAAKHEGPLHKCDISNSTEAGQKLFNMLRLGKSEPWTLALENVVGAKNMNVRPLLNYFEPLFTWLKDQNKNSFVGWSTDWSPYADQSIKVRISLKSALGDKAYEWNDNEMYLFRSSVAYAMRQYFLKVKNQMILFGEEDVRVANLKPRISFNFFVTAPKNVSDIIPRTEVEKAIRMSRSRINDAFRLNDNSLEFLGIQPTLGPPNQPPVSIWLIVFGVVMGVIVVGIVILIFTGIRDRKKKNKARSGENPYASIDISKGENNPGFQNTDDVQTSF
# Chain of ACE (P12821 1-732 isoform P12821-3): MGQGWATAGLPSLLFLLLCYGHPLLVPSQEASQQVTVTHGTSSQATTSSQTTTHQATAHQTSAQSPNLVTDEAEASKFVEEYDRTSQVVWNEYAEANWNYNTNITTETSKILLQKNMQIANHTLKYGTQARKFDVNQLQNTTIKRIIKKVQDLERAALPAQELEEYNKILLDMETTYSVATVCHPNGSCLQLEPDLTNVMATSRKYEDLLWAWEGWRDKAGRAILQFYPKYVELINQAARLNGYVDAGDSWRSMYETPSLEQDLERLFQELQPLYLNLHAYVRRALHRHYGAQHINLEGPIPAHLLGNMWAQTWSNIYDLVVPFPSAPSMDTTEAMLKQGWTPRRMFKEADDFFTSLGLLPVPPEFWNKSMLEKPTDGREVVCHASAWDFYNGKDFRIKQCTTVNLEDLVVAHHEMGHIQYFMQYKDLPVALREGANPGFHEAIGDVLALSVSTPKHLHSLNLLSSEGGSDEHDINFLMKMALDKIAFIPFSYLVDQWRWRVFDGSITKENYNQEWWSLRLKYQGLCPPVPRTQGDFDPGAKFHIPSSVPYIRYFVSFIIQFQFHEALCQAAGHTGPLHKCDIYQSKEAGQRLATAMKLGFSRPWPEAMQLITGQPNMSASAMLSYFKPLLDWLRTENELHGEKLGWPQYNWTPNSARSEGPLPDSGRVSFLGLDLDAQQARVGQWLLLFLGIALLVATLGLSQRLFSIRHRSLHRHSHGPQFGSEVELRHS
smiles,measurement,setting,value
"CC(C)C[C@H](N[C@@H](Cc1cncn1Cc1cc(Cl)cc(Cl)c1)C(=O)O)C(=O)O [Compound (I), 2-[1-(S)-carboxy-2(S)-[3-(3,5-dichloro-benzyl)-3H-imidazol-4-yl]-ethylamino]-4-methylpentanoic acid]","DSS-induced disease activity, including rectal prolapse and intestinal bleeding",[1],ameliorated
same,colon pathology,[1]; [6],markedly attenuated
same,myeloperoxidase activity,[1]; [6],markedly attenuated
same,water solubility,Water solubility,excellent
same,water solubility,Water solubility; listed as dicarboxylic acid,limited
same,anti-inflammatory effects in the upper gastrointestinal tract,[2],exhibits anti-inflammatory effects
same,IC50,ACE,> 50 µM
same,body weight recovery,"[3]; 30 mg/kg, by day 15",compete recovery by day 15
same,body weight loss and recovery compared with vehicle+DSS group,"[3]; 300 mg/kg repeated b.i.d., days 5-15",similar
same,"disease activity index (fecal occult blood, stool consistency, rectal prolapse) elevated by DSS","[3]; 300 mg/kg, day 7 and day 9",attenuated
same,DSS-induced damage in the distal colon (total histopathology score),"[3]; 300 mg/kg, day 15",significantly attenuated
same,body weight reduction,"[3]; 30 and 100 mg/kg, maximum effects on day 9",exhibited the largest weight reduction
same,effect on any DAI parameter,"[3]; 30 or 100 mg/kg, all P>0.05",no effects were observed
same,DSS-induced colon shrinkage,"[3]; day 15, 30 or 100 mg/kg, P>0.05",No effects
same,DSS-induced colon shortening,[3]; day 15,reversed
same,ACE2 inhibitor potency and selectivity,ACE2,potent and selective
same,IC50,CPDA,> 50 µM
same,protection against NSAID-induced gastric damage,[4],protects against NSAID-induced gastric damage
same,long-term stability / degradation,"[5]; ambient temperature and humidity, 7 years",no apparent degradation
"O=C(O)c1cc(/N=N/c2ccc(S(=O)(=O)Nc3ccccn3)cc2)ccc1O [sulfasalazine, reference compound]",rectal prolapse and bleeding (DAI),"[3]; 150 mg/kg, compared with Compound (I) 300 mg/kg",similarly efficacious
same,DSS-induced colon shortening,[3]; day 15,reversed
same,body weight recovery compared with vehicle+DSS and Compound (I) 300 mg/kg groups,"[3]; sulfasalazine-treated animals, day 15",did not recover to the same extent by day 15
CC(C)C[C@H](N[C@@H](Cc1cncn1Cc1cc(Cl)cc(Cl)c1)C(=O)[O-])C(=O)[O-].[Na+].[Na+] [disodium salt anhydrate],stability,[5]; ambient temperatures,"unstable, thermally sensitive, and subject to oxidation at ambient temperatures"
"CC(C)C[C@@H](N[C@H](Cc1cncn1Cc1cc(Cl)cc(Cl)c1)C(=O)O)C(=O)O [R,R isomer, 2-[1-(R)-carboxy-2(R)-[3-(3,5-dichloro-benzyl)-3H-imidazol-4-yl]-ethylamino]-4-methylpentanoic acid, reference compound]",IC50,"ACE2; stereoisomers of Compound (I), per Dales et al., read-out: activity of the isomer (ACE2 inhibition)",> 50 µM
